Data reported in patent US12685726B2, “Sulfoximines as inhibitors of NaV1.8” (Gruenenthal GmbH, priority 2022, dated 2026).
pIC50: −log10 of the molar value.

Biological target: T1, human NaV 1.8 (Homo sapiens, UniProt Q9Y5Y9)
T1 construct: expressed in transfected cells; host or cells: HEK (recombinant cell line)
Experiment: Automated whole-cell patch clamp (Qube384) voltage-clamp recordings of sodium currents in HEK-NaV1.8 cell line
Type: cell-based
Details: read-out: Potency category (human NaV 1.8 IC50)
Procedure: Electrophysiology: Voltage-Clamp Recordings
The following NaV1.8 recombinant cell line was used for recordings: HEK-NaV1.8 (NM_006514.1) with b3 (NM_018400.3).
Sodium currents were measured using the patch clamp technique in the whole-cell configuration using the Qube384 (Sophion A/S, Copenhagen, Denmark) automated voltage clamp platform. “Multi hole” plates were used for the cell line expressing NaV1.8 while “single hole” plates were used for the recombinant cell lines expressing the other subtypes. Appropriate filters (for minimum seal resistance and minimum current size) and series resistance compensation (for high quality sodium channel recordings) were applied. Data was collected at ambient room temperature or 19° C.
The recording extracellular solution contained (in mM): NaCl 145 mM, KCl 4 mM, CaCl2 2 mM, MgCl2 1 mM, HEPES 10 mM, Glucose 10 mM, pH 7.4 (NaOH). The intracellular recording solution contained (in mM): CsF 120 mM, CsCl 20 mM, NaCl 10 mM, EGTA 10 mM, HEPES 10 mM, pH 7.2 (CsOH). Currents were recorded at 25 kHz sampling frequency and filtered at 5 kHz. Series resistance compensation was applied at 65%.
Vehicle (VEH) is the control condition where cells are exposed to 0.3% DMSO without compound. All runs include VEH controls being exposed to the same voltage protocols to assess non-compound related phenomena such as run down and then used to isolate compound dependent effects on currents.
To check for state-dependent inhibition, the following voltage-sequence was applied every 20 seconds:
From a resting membrane potential of −120 mV, the first test pulse (P1; 20 ms to −10 mV) was applied to check for channels in the Resting State followed by a brief recovery (100 ms to −120 mV), then holding the membrane voltage to V1/2 (4 seconds at voltage to obtain half the channel at Rest and half Inactivated) with a subsequent second test pulse (P2; 20 ms to −10 mV) to check for channels in the Inactivated State, followed by another brief recovery (20 ms to −120 mV) and a final third test pulse (P3; 20 ms to −10 mV) to check for recovered channels.
To check for frequency-dependent inhibition, a 10 Hz protocol and a 20 Hz protocol were applied; namely,
From a resting membrane potential of −120 mV, 40-pulses (10 ms to −10 mV) was applied at 10 Hz (at 100 ms between pulses) and then at 20 Hz (at 50 ms between pulses).
Each parameter was recorded (P1, P2, P3, P40 from 10 Hz and P40 from 20 Hz) during a control period (lasting 5 minutes) when establishing the baseline and during compound period (lasting ~12 minutes) when test compound (or vehicle) was applied. For each parameter, the value at the end of the compound period was normalized to the vehicle baseline; as follows
To adjust for any variance in the Na^+ current signal during the compound period (owing to cumulative inactivation independent of compound or shifts in biophysics over time), a dedicated segment of the recording wells in each 384 plate were dedicated to having only vehicle exposure. These vehicle-only recordings were used to correct for any apparent “run-up” or “run-down” in the experiment.
The adjusted inhibition was calculated as follows: […]
Percent inhibition was determined and IC50 values were calculated using a 4 parameter logistic model within XLFit Software (IDBS, Boston MA): F
[formula] where A and B are the maximal and minimum inhibition respectively, C is the IC50 concentration and D is the (Hill) slope.

T1 sequence (Q9Y5Y9 whole entry): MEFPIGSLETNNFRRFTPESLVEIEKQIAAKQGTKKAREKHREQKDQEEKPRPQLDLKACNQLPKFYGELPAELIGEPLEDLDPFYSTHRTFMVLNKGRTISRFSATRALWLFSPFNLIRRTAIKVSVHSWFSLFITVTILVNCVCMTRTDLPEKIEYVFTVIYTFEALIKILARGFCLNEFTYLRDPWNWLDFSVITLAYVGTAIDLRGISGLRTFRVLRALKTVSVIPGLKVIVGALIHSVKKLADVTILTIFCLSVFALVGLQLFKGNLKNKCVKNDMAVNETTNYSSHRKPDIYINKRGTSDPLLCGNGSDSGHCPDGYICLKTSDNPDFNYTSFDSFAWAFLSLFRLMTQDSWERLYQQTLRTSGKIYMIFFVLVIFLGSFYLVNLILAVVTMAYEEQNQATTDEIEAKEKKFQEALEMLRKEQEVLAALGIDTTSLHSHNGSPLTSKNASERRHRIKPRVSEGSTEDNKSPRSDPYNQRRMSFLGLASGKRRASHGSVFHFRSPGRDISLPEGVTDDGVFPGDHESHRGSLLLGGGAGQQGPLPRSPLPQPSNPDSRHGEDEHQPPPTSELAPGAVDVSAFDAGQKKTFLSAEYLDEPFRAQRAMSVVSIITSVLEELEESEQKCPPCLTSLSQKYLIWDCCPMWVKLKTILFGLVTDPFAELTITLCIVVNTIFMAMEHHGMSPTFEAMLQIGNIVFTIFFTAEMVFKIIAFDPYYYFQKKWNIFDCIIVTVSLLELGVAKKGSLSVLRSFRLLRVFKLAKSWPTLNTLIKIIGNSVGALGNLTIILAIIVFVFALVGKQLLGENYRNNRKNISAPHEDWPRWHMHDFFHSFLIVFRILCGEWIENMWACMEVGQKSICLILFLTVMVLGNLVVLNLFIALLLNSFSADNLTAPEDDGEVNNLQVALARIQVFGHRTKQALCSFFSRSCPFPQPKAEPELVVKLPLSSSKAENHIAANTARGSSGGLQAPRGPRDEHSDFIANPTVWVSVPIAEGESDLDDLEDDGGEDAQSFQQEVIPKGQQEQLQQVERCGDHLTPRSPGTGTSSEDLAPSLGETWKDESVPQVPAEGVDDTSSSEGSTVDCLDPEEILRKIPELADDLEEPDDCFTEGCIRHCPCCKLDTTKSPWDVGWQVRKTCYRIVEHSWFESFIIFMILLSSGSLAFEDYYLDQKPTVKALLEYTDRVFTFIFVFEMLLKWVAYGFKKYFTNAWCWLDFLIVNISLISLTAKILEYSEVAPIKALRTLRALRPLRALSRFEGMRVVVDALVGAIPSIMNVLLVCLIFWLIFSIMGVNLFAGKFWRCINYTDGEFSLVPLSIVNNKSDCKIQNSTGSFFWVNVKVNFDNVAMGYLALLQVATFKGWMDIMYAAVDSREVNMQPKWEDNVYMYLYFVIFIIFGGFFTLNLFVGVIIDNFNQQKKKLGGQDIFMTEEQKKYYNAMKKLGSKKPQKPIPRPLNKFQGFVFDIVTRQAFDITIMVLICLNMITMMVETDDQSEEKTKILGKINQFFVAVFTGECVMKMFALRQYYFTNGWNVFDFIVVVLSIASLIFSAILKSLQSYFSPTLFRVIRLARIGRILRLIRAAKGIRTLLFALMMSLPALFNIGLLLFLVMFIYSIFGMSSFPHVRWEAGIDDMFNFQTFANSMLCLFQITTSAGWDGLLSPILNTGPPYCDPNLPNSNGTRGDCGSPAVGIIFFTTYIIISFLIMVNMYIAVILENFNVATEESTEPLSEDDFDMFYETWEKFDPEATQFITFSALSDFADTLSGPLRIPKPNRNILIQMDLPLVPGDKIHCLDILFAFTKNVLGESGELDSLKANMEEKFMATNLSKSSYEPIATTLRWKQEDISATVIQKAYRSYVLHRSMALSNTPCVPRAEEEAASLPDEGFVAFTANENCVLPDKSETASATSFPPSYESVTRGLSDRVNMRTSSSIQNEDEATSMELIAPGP

Compound: CS(=N)(=O)c1cc(NC(=O)c2c(C(F)(F)F)c(C3CC3)nn2CC2CCC(F)(F)C2)ccn1 (single isomer, unassigned) [Example 7b, 3-cyclopropyl-1-((3,3-difluorocyclopentyl)methyl)-N-(2-(S-methylsulfonimidoyl)pyridin-4-yl)-4-(trifluoromethyl)-1H-pyrazole-5-carboxamide]
- pIC50: ≥ 7.00

Compound: CC1(Cn2nc(C3(C)CC3)c(C(F)(F)F)c2C(=O)Nc2ccnc(S(C)(=N)=O)c2)CC(F)(F)C1 (single isomer, unassigned) [Example 69b, 1-((3,3-difluoro-1-methylcyclobutyl)methyl)-3-(1-methylcyclopropyl)-N-(2-(S-methylsulfonimidoyl)pyridin-4-yl)-4-(trifluoromethyl)-1H-pyrazole-5-carboxamide]
- pIC50: ≥ 7.00

Compound: CS(=N)(=O)c1cc(NC(=O)c2c(C(F)(F)F)c(C3CC3)nn2CC2CC3(C2)CC(F)(F)C3)ccn1 (single isomer, unassigned) [Example 27a, 3-cyclopropyl-1-((6,6-difluorospiro[3.3]heptan-2-yl)methyl)-N-(2-(S-methylsulfonimidoyl)pyridin-4-yl)-4-(trifluoromethyl)-1H-pyrazole-5-carboxamide]
- pIC50: ≥ 7.00

Compound: CC1(Cn2nc(C3CC3)c(C(F)(F)F)c2C(=O)Nc2cnnc(S(C)(=N)=O)c2)CC(F)(F)C1 (single isomer, unassigned) [Example 47b, 3-cyclopropyl-1-((3,3-difluoro-1-methylcyclobutyl)methyl)-N-(6-(S-methylsulfonimidoyl)pyridazin-4-yl)-4-(trifluoromethyl)-1H-pyrazole-5-carboxamide]
- pIC50: ≥ 7.00

Compound: CS(=N)(=O)c1cc(NC(=O)c2c(C(F)(F)F)c(C3CC3)nn2CC2CC3(C2)CC(F)(F)C3)ccn1 (single isomer, unassigned) [Example 27b, 3-cyclopropyl-1-((6,6-difluorospiro[3.3]heptan-2-yl)methyl)-N-(2-(S-methylsulfonimidoyl)pyridin-4-yl)-4-(trifluoromethyl)-1H-pyrazole-5-carboxamide]
- pIC50: ≥ 7.00

Compound: CC1(Cn2nc(C34CC(F)(C3)C4)c(C(F)(F)F)c2C(=O)Nc2ccc(F)c(S(C)(=N)=O)c2)CC(F)(F)C1 (single isomer, unassigned) [Example 141b, 1-((3,3-Difluoro-1-methylcyclobutyl)methyl)-N-(4-fluoro-3-(S-methylsulfonimidoyl)phenyl)-3-(3-fluorobicyclo[1.1.1]pentan-1-yl)-4-(trifluoromethyl)-1H-pyrazole-5-carboxamide]
- pIC50: ≥ 7.00

Compound: CC1(Cn2nc(C3(F)CC3)c(C(F)(F)F)c2C(=O)Nc2cccc(S(=N)(=O)C(F)(F)F)c2)CC(F)(F)C1 (stereo not drawn) [Example 131, 1-((3,3-Difluoro-1-methylcyclobutyl)methyl)-3-(1-fluorocyclopropyl)-4-(trifluoromethyl)-N-(3-(S-(trifluoromethyl)sulfonimidoyl)phenyl)-1H-pyrazole-5-carboxamide]
- pIC50: ≥ 7.00

Compound: C[S@@](=N)(=O)c1cccc(NC(=O)c2c(C(F)(F)F)c(C3(F)CC3)nn2CC2C[C@H]2C(F)(F)F)c1 (single isomer, unassigned) [Example 134c, 3-(1-Fluorocyclopropyl)-N-(3-(S-methylsulfonimidoyl)phenyl)-4-(trifluoromethyl)-1-(((trans)-2-(trifluoromethyl)cyclopropyl)methyl)-1H-pyrazole-5-carboxamide]
- pIC50: ≥ 7.00

Compound: CS(=N)(=O)c1cc(NC(=O)c2c(C(F)(F)F)c(C3CC3)nn2CC23CC(CC2(F)F)C3)ccn1 (single isomer, unassigned) [Example 103b, 3-cyclopropyl-1-((2,2-difluorobicyclo[2.1.1]hexan-1-yl)methyl)-N-(2-(S-methylsulfonimidoyl)pyridin-4-yl)-4-(trifluoromethyl)-1H-pyrazole-5-carboxamide]
- pIC50: ≥ 7.00

Compound: CS(=N)(=O)c1cc(NC(=O)c2c(C(F)(F)F)c(C3CC3)nn2CC2CCC23CNC3)ccn1 (single isomer, unassigned) [Example 153d, 1-((2-Azaspiro[3.3]heptan-5-yl)methyl)-3-cyclopropyl-N-(2-(S-methylsulfonimidoyl)pyridin-4-yl)-4-(trifluoromethyl)-1H-pyrazole-5-carboxamide]
- pIC50: 5.00 to 6.00

Compound: CC1(Cn2nc(C3CC3(F)F)c(C(F)(F)F)c2C(=O)Nc2ccnc(S(C)(=N)=O)c2)CC(F)(F)C1 (single isomer, unassigned) [Example 63c, 1-((3,3-Difluoro-1-methylcyclobutyl)methyl)-3-(2,2-difluorocyclopropyl)-N-(2-(S-methylsulfonimidoyl)pyridin-4-yl)-4-(trifluoromethyl)-1H-pyrazole-5-carboxamide]
- pIC50: ≥ 7.00

Compound: CS(=N)(=O)c1cc(NC(=O)c2c(C(F)(F)F)c(C3CC3)nn2CC2C(F)(F)C23CCC3)ccn1 (single isomer, unassigned) [Example 136b, 3-Cyclopropyl-1-((2,2-difluorospiro[2.3]hexan-1-yl)methyl)-N-(2-(S-methylsulfonimidoyl)pyridin-4-yl)-4-(trifluoromethyl)-1H-pyrazole-5-carboxamide]
- pIC50: ≥ 7.00

Compound: CN=S(C)(=O)c1cc(NC(=O)c2c(C)c(C(C)(F)F)nn2CC2(C)CC(F)(F)C2)ccn1 (single isomer, unassigned) [Example 34b, 1-((3,3-Difluoro-1-methylcyclobutyl)methyl)-3-(1,1-difluoroethyl)-N-(2-(N,S-dimethylsulfonimidoyl)pyridin-4-yl)-4-methyl-1H-pyrazole-5-carboxamide]
- pIC50: ≥ 7.00

Compound: CC1(Cn2nc(C3CC3)c(C(F)(F)F)c2C(=O)Nc2ccc(F)c(S(C)(=N)=O)c2)CC(F)(F)C1 (single isomer, unassigned) [Example 132b, 3-Cyclopropyl-1-((3,3-difluoro-1-methylcyclobutyl)methyl)-N-(4-fluoro-3-(S-methylsulfonimidoyl)phenyl)-4-(trifluoromethyl)-1H-pyrazole-5-carboxamide]
- pIC50: ≥ 7.00

Compound: CS(=N)(=O)c1cc(NC(=O)c2c(C(F)(F)F)c(C34CC(C3)C4)nn2CC2C[C@@H]2C(F)(F)F)ccn1 (stereo partly shown) [Example 147]
- pIC50: ≥ 7.00

Compound: CC1(Cn2nc(C(C)(C)C)c(C(F)(F)F)c2C(=O)Nc2ccnc(S(C)(=N)=O)c2)CC(F)(F)C1 (single isomer, unassigned) [Example 143a, 3-(Tert-butyl)-1-((3,3-difluoro-1-methylcyclobutyl)methyl)-N-(2-(S-methylsulfonimidoyl)pyridin-4-yl)-4-(trifluoromethyl)-1H-pyrazole-5-carboxamide]
- pIC50: ≥ 7.00

Compound: CS(=N)(=O)c1cc(NC(=O)c2c(C(F)(F)F)c(C3CC3)nn2CC2C3(CC3)C23CC3)ccn1 (single isomer, unassigned) [Example 80a, 3-cyclopropyl-1-(dispiro[2.0.24.13]heptan-7-ylmethyl)-N-(2-(S-methylsulfonimidoyl)pyridin-4-yl)-4-(trifluoromethyl)-1H-pyrazole-5-carboxamide]
- pIC50: ≥ 7.00

Compound: CC1(Cn2nc(C34CC(C3)C4)c(C(F)(F)F)c2C(=O)Nc2ccnc(S(C)(=N)=O)c2)CC(F)(F)C1 (single isomer, unassigned) [Example 58b, 3-(Bicyclo[1.1.1]pentan-1-yl)-1-((3,3-difluoro-1-methylcyclobutyl)methyl)-N-(2-(S-methylsulfonimidoyl)pyridin-4-yl)-4-(trifluoromethyl)-1H-pyrazole-5-carboxamide]
- pIC50: ≥ 7.00

Compound: CS(=N)(=O)c1cc(NC(=O)c2c(C(F)(F)F)c(C3CC3)nn2CC2C(F)(F)C23CCC3)ccn1 (single isomer, unassigned) [Example 136d, 3-Cyclopropyl-1-((2,2-difluorospiro[2.3]hexan-1-yl)methyl)-N-(2-(S-methylsulfonimidoyl)pyridin-4-yl)-4-(trifluoromethyl)-1H-pyrazole-5-carboxamide]
- pIC50: ≥ 7.00
